Measured values taken from US11168084B2, “Purine based compounds as toll-like receptor 9 antagonist” (COUNCIL OF SCIENTIFIC & INDUSTRIAL RESEARCH, priority 2017, dated 2021).
pIC50: −log10 of the molar value.

target: T1, toll-like receptor 9 (TLR9) (Homo sapiens, UniProt Q9NR96); experiment: Screening of TLR9 antagonistic activity: IFN-alpha production from human PBMC in response to CpGA (ELISA); assay type: cell-based; details: TLR9 antagonism; Table 2 does not say which of the three TLR9 assays
T1 construct: we isolated PBMCs from venous blood collected from healthy donors using density gradient centrifugation; endogenous in cells; host or cells: primary human PBMC (plasmacytoid dendritic cells) from healthy donors
T1 sequence (Q9NR96 26-1032): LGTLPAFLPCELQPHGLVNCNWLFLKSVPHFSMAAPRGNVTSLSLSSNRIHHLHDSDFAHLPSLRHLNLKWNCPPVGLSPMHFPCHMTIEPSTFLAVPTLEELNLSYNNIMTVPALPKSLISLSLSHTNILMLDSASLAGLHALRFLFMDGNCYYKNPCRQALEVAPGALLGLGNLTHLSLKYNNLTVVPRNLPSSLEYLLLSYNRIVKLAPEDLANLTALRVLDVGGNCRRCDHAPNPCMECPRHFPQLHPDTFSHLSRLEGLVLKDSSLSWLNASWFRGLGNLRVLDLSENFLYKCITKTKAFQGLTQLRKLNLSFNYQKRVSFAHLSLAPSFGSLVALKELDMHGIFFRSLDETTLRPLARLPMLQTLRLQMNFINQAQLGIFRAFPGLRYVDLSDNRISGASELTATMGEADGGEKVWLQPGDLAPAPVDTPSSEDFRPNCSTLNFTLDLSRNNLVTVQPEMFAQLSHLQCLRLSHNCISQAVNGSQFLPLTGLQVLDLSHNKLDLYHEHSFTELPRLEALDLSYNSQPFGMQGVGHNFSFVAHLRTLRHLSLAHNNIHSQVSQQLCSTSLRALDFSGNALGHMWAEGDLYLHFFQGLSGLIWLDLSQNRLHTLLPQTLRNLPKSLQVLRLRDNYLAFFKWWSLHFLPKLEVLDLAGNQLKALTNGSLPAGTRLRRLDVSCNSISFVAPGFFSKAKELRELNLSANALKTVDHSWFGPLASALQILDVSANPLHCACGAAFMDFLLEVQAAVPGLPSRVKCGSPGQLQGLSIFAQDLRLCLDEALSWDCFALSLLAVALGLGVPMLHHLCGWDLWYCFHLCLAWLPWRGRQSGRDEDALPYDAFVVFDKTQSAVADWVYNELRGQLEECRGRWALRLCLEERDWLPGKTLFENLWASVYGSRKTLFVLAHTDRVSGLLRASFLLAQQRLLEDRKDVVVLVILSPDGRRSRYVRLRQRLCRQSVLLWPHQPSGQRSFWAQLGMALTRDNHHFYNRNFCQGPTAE
Source text: The principle of the screening assay was designed based on the production of Type I interferons (IFN-alpha) from human PBMCs, which results almost exclusively from TLR9 triggering on the PDCs by type A CpG oligonucleotides (CpGA). PBMCs were isolated from venous blood collected from healthy donors using density gradient centrifugation.
A medium throughput biological assay based on toll-like receptor 9 activation has been designed in primary human immune cells to screen the synthesized small molecules with general formula (I) for toll-like receptor 9 (TLR9) antagonism. Among the immune cell subsets circulating in the peripheral blood, two cell subsets plasmacytoid dendritic cells (PDCs) and B lymphocytes has significant expression of TLR9. Plasmacytoid dendritic cells are capable of producing type I interferons (e.g. IFN-alpha) in response to TLR9 ligands. Type A and type B unmethylated cytosine-guanine rich DNA oligonucleotides (CpG oligonucleotides) are the bonafide ligands for TLR9.
In the screening assay we isolated PBMCs from venous blood collected from healthy donors using density gradient centrifugation. PBMCs were cultured the at 2-3*10^5 cells/200 ul/well in a 96 well plate. TLR9 agonist CpGA was added at 1 uM in presence of escalating doses of the synthesized small molecules (0 uM, 0.1 uM, 1 uM, 5 uM, 10 uM and 20 uM). The supernatants was collected after overnight culture from the culture wells and looked for IFN-alpha using enzyme linked immunosorbent assay (ELISA). […] For the biological validation of TLR9 antagonism the bona fide TLR9 agonist CpG oligonucleotides were used.

Compound	pIC50
CCN1CCN(CCCn2cnc3c(N4CCN(CC)CC4)nc(N4CCCC4)nc32)CC1 [Compound 9]	5.74
CCN1CCN(CCCn2cnc3c(N4CCN(CC)CC4)nc(NCc4ccc(OC)cc4)nc32)CC1 [Compound 5, 6-(4-ethylpiperazin-1-yl)-9-(3-(4-ethylpiperazin-1-yl)propyl)-N-(4-methoxybenzyl)-9H-purin-2-amine]	6.69
Nc1nc(N2CCN(C3CCCC3)CC2)c2ncn(CCCN3CCCC3)c2n1 [Compound 29, 6-(4-cyclopentylpiperazin-1-yl)-9-(3-(pyrrolidin-1-yl)propyl)-9H-purin-2-amine]	6.91
CCN1CCN(c2nc(NCc3ccc(OC)cc3)nc3c2ncn3CCCN2CCCC2)CC1 [Compound 34, 6-(4-ethylpiperazin-1-yl)-N-(4-methoxybenzyl)-9-(3-(pyrrolidin-1-yl)propyl)-9H-purin-2-amine]	7.10
Fc1ccc(CNc2nc(N3CCN(C4CCCC4)CC3)c3ncn(CCCN4CCCC4)c3n2)cc1 [Compound 32, 6-(4-cyclopentylpiperazin-1-yl)-N-(4-fluorobenzyl)-9-(3-(pyrrolidin-1-yl)propyl)-9H-purin-2-amine]	7.00
CCN1CCN(CCCn2cnc3c(N4CCN(CC)CC4)nc(NCc4ccc(N(CC)CC)cc4)nc32)CC1 [Compound 7, N-(4-(diethylamino)benzyl)-6-(4-ethylpiperazin-1-yl)-9-(3-(4-ethylpiperazin-1-yl)propyl)-9H-purin-2-amine]	6.36
CCN1CCN(CCCn2cnc3c(N4CCN(CC)CC4)nc(NCc4ccccc4)nc32)CC1 [Compound 8, N-benzyl-6-(4-ethylpiperazin-1-yl)-9-(3-(4-ethylpiperazin-1-yl)propyl)-9H-purin-2-amine]	6.85
CCN1CCN(CCCn2cnc3c(N4CCN(C5CCCC5)CC4)nc(NCc4ccc(N(CC)CC)cc4)nc32)CC1 [Compound 24]	6.84
CCN1CCN(CCCn2cnc3c(N4CCN(CC)CC4)nc(N)nc32)CC1 [Compound 4, 6-(4-ethylpiperazin-1-yl)-9-(3-(4-ethylpiperazin-1-yl)propyl)-9H-purin-2-amine]	6.73
CCN1CCN(CCCn2cnc3c(N4CCN(CC)CC4)nc(NC(=O)C4CCCN4)nc32)CC1 (stereo not shown) [Compound 12, N-(6-(4-ethylpiperazin-1-yl)-9-(3-(4-ethylpiperazin-1-yl)propyl)-9H-purin-2-yl) pyrrolidine-2-carboxamide]	6.42
CCN1CCN(CCCn2cnc3c(N4CCN(C5CCCC5)CC4)nc(NCc4ccc(OC)cc4)nc32)CC1 [Compound 26, 6-(4-cyclopentylpiperazin-1-yl)-9-(3-(4-ethylpiperazin-1-yl)propyl)-N-(4-methoxybenzyl)-9H-purin-2-amine]	6.92
CCN1CCN(CCCn2cnc3c(N4CCN(C5CCCC5)CC4)nc(NCc4ccc(F)cc4)nc32)CC1 [Compound 25, 6-(4-cyclopentylpiperazin-1-yl)-9-(3-(4-ethylpiperazin-1-yl)propyl)-N-(4-fluorobenzyl)-9H-purin-2-amine]	6.60
CCN1CCN(CCCn2cnc3c(N4CCN(C5CCCC5)CC4)nc(NC(=O)c4ccc(CN(C)C)cc4)nc32)CC1 [Compound 27, N-(6-(4-cyclopentylpiperazin-1-yl)-9-(3-(4-ethylpiperazin-1-yl)propyl)-9H-purin-2-yl)-4-((dimethylamino)methyl)benzamide]	7.25
CN(C)Cc1ccc(C(=O)Nc2nc(N3CCN(C4CCCC4)CC3)c3ncn(CCCN4CCCC4)c3n2)cc1 [Compound 31, N-(6-(4-cyclopentylpiperazin-1-yl)-9-(3-(pyrrolidin-1-yl)propyl)-9H-purin-2-yl)-4-((dimethylamino)methyl)benzamide]	8.30
COc1ccc(CNc2nc(N3CCN(C4CCCC4)CC3)c3ncn(CCCN4CCCC4)c3n2)cc1 [Compound 30, 6-(4-cyclopentylpiperazin-1-yl)-N-(4-methoxybenzyl)-9-(3-(pyrrolidin-1-yl)propyl)-9H-purin-2-amine]	6.62
CCN1CCN(CCCn2cnc3c(N4CCN(CC)CC4)nc(NC(=O)c4ccccc4)nc32)CC1 [Compound 10, N-(6-(4-ethylpiperazin-1-yl)-9-(3-(4-ethylpiperazin-1-yl)propyl)-9H-purin-2-yl)benzamide]	6.47
CCN1CCN(CCCn2cnc3c(N4CCN(CC)CC4)nc(NCc4ccc(F)cc4)nc32)CC1 [Compound 6, 6-(4-ethylpiperazin-1-yl)-9-(3-(4-ethylpiperazin-1-yl)propyl)-N-(4-fluorobenzyl)-9H-purin-2-amine]	6.33
CCN1CCN(CCCn2cnc3c(N4CCN(C(=O)C5CCCC5)CC4)nc(NCc4ccc(N(CC)CC)cc4)nc32)CC1 [Compound 38, Cyclopentyl(4-(2-(4-(diethylamino)benzylamino)-9-(3-(4-ethylpiperazin-1-yl)propyl)-9H-purin-6-yl)piperazin-1-yl)methanone]	5.06
Iso-butyl(1-(6-(4-ethylpiperazin-1-yl)-9-(3-(4-ethylpiperazin-1-yl)propyl)-9H-purin-2-yl)amino)-1-oxo-3-phenylpropan-2-yl)carbamate [Compound 15]	6.33
